SMILES strings stand for the structures.

This note sets out measurements from patent US10145848B2, “Small-molecule hydrophobic tagging of fusion proteins and induced degradation of same” (YALE UNIVERSITY, priority 2010, dated 2018).

For data set [1], the target named is T1, HA-HaloTag(D106A)-H-RasG12V (UniProt P01112+P0A3G2, C176G/D106A/G12V/H272F/K175M/Y273L).
T1 construct: The HaloTag protein was obtained from pHT2 vector (Promega); H-Ras carrying G12V (fusion partner, same polypeptide); expressed in transfected cells; host or cells: NIH-3T3, retroviral infection (pEYK3.1)
T1 sequence (P0A3G2+P01112 fused with the stated changes): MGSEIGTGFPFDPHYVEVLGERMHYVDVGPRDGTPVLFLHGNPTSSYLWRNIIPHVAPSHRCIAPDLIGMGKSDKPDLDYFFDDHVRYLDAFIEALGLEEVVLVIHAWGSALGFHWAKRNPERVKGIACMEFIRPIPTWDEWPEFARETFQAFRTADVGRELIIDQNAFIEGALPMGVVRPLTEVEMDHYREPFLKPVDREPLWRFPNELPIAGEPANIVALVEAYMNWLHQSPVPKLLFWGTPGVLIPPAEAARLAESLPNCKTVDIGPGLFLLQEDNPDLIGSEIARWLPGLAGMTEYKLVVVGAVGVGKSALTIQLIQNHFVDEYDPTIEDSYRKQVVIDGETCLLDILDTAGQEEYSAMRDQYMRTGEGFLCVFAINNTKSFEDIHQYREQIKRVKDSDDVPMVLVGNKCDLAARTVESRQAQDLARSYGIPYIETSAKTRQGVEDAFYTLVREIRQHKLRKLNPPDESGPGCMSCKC
The data set is described as follows: Immunoblotting of HA-HaloTag(D106A)-H-RasG12V in NIH-3T3 cells. It counts as cell-based. The following applies: 1 μM, 24 hours. The protocol: (a) NIH-3T3 cells were retrovirally infected with a construct expressing either HA-HaloTag-HRas(G12V) or HA-HaloTag(D106A)-HRas(G12V). The cells were then treated with vehicle or 1 μM HyT13 for 24 hours. The lysates were prepared for immunoblotting and the blots were probed with anti-HA and anti-β-actin antibodies. (b) One hundred thousand NIH-3T3 cells infected with HA-HaloTag-HRas(G12V) or HA-HaloTag(D106A)-HRas(G12V) were plated in 10% FBS containing medium onto 10-cm plates. The next day, the medium was replaced with 1% FBS containing medium, along with vehicle or 1 μM HyT13. The media was refreshed every 2 days, and the plates were pictured on day 6. Bar, 5 mm. (c) Quantification of foci as described in (b). The number of foci/cm^2 was counted from three separate plates, with error bars representing SEM. […] Tumor size was measured daily, and the tumor volume was calculated. […]
The indicated cells were washed twice with cold PBS and the cells were lysed in lysis buffer (1×PBS, 1% NP-40, 1 mM EDTA, 40 mM HEPES) with protease inhibitors. […] The total protein concentration was determined by Bradford assay and 50 μg of protein was loaded onto an 8% Bis-Tris gel. […] The blots were processed by standard procedures with indicated antibodies, and the band intensities were quantified by ImageJ. […]
On the technique in general: In western blotting, separated proteins are transferred to a membrane and probed.

Data set [2] is described as follows: Serum HyT13 determination (bio-reporter assay). It is filed as in vivo. The following applies: mouse, intraperitoneal, 25 mg/kg IP, Swiss Webster mice, read-out: blood serum concentration. On the procedure: Webster Swiss mice received IP injections of 25 mg/kg of HyT13. The injection volume was 10 μL, consisting of 5 μL, of Cremophor EL excipient and 5 μL, of HyT13 in DMSO. Blood was collected from the carotid artery 1 and 24 hours after the injection. The blood was allowed to coagulate for 10 minutes, centrifuged at 10,000 g for 5 minutes and the serum was pipetted into a new tube. Ten microliters of the serum were used for a bio-reporter assay, consisting of the ability to degrade luciferase activity in HEK 293T luciferase-HaloTag cells. The serum concentration of HyT13 was based on a concentration curve of HyT13 performed alongside the bio-reporter assay. […] Each treatment group consisted of three mice. Shown is the mean serum HyT13 level±SEM.
To examine whether the HaloTag:HyT13 based system could be used in mouse models to relieve the H-RasG12V-driven tumor burden, we first evaluated the pharmacokinetics of HyT13. We performed a maximum tolerated dose experiment with HyT13 in nude mice at doses up to 100 mg/kg over a 14-day treatment regimen. […] Next, we sought to determine the serum bioavailability of HyT13 following injections. HyT13 was administered at 25 mg/kg by intraperitoneal (IP) injection into Swiss Webster mice and the serum was collected at 1 and 24 hours post-injection. […]
(In general: In a reporter assay the amount or activity of a reporter protein is the signal.)

Take `O=C(CC12CC3CC(CC(C3)C1)C2)NCCOCCOCCCCCCCl` [HyT13, 2-((3r,5r,7r)-Adamantan-1-yl)-N-(2-(2-((6-chlorohexyl)oxy)ethoxy)ethyl)acetamide]: the “degradation of HA-HaloTag(D106A)-H-RasG12V” value in data set [1] was “unaffected”. Further, the concentration at 1 h in data set [2] (1 hour post administration) is ~2 µM. Also, in data set [2] (24 hours), the concentration at 24 h was ~0.5 µM.
